Measurements taken from patent US20250145625A1, “PYRAZOLOPYRIMIDINE DERIVATIVE AND ANTICANCER PHARMACEUTICAL COMPOSITION CONTAINING SAME AS ACTIVE INGREDIENT” (KOREA RESEARCH INSTITUTE OF CHEMICAL TECHNOLOGY, priority 2021, published 2025).

Key:
[1] = tested on: MDA-MB-231 triple negative breast cancer cell line; test: Cytotoxicity in TTK-expressed MDA-MB-231 cells; format: cell-based; conditions: Homo sapiens, MDA-MB-231, 120 h, 5 days
Description: To determine the cytotoxicity of a compound represented by Chemical Formula 1 according to the present invention to MDA-MB-231 cells, the following test was conducted.
MDA-MB-231 triple negative breast cancer cell line purchased from ATCC was inoculated into each well of a 96-well plate at a volume of 90 μL containing 2,000 cells. Thereafter, an example compound of the present invention was added to respective wells at concentrations of 10 μM, 3 μM, 1 μM, 0.3 μM, 0.1 μM, and 0 μM, and the cells were cultured in a cell incubator at 37° C. for 5 days. Five days later, 10 μL of Cyto X solution (manufacturer: LPS Solution) was added to each of the wells, and the absorbance was measured at 450 nm using an Epoch microplate spectrophotometer (manufacturer: BioTek Instruments Inc.) according to the product's user guide. For cytotoxicity, the IC50 value for cytotoxicity of each compound was calculated by quantifying the number of cells using the measured value.

[2] = tested on: HCT116 colon cancer cell line; test: Cytotoxicity in TTK-expressed HCT116 cells; format: cell-based; conditions: Homo sapiens, HCT-116, 120 h, 5 days
Description: To determine the cytotoxicity of a compound represented by Chemical Formula 1 according to the present invention to HCT116 cells, the following test was conducted.
HCT116 colon cancer cell line purchased from ATCC was inoculated into each well of a 96-well plate at a volume of 90 μL containing 2,000 cells. Thereafter, an example compound of the present invention was added to respective wells at concentrations of […], 3 μM, 1 μM, 0.3 μM, 0.1 μM, and 0 μM, and the cells were cultured in a cell incubator at 37° C. for 5 days. After 5 days, the number of cells was measured by CCK8 test method, and the cytotoxicity was determined by calculating the IC50 value for cytotoxicity of each compound.

[3] = biological target: recombinant human TTK protein (Homo sapiens (Human), UniProt P33981); test: Evaluation of TTK activity inhibitory ability (scintillation counting); format: biochemical; conditions: TTK inhibitory activity; read-out: IC50;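 also: reaction stopped with 0.5% phosphoric acid, spotted on P30 filter, TTK activity counted by scintillation, uninhibited no-compound wells taken as 100% control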
Chain of recombinant human TTK protein (P33981 whole entry): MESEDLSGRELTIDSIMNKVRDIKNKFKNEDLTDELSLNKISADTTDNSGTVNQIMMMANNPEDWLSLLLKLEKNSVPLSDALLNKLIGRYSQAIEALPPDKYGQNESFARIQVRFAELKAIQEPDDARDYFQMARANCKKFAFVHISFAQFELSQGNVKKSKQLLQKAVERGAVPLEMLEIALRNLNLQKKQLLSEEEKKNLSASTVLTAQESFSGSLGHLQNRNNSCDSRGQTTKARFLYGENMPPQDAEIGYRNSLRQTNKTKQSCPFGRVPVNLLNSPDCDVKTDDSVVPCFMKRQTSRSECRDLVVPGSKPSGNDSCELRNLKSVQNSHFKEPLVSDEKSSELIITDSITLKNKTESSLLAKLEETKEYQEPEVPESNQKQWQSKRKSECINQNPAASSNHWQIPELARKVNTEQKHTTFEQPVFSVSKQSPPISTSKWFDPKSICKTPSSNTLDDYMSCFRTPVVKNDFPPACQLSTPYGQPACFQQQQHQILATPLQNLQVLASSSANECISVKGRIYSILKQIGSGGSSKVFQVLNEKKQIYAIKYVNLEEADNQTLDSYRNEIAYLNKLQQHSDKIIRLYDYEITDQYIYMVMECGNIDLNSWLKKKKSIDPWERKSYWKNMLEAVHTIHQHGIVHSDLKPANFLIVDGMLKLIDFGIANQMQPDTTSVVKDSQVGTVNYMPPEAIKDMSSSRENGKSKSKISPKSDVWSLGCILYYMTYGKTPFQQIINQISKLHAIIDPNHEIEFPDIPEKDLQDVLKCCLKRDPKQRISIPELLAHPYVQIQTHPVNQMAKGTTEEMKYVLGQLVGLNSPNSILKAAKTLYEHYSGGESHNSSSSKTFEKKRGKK
Description: To determine the ability of a compound represented by Chemical Formula 1 according to the present invention to inhibit TTK activity, the following experiment was conducted.
After that, the reaction was terminated by adding phosphoric acid to a concentration of 0.5%, and 10 of the reaction solution was dropped onto a P30 filter. […] The activity of TTK was measured through scintillation counting. The activity value from the group with no compound was set as 100% of control, and the degree of TTK inhibition by the compound was calculated.

Row | IC50 [3] | SMILES | IC50 [1] | IC50 [2]
1 |  | COc1cc(N2CCOCC2)ccc1Nc1nc(NC2CCCCC2)c2c(-c3cccc(C(N)=O)c3)n[nH]c2n1 [Compound 8-2, 3-(4-(Cyclohexylamino)-6-((2-methoxy-4-morpholinophenyl)amino)-1H-pyrazolo[3,4-d]pyrimidin-3-yl)benzamide] | > 1000 nM | > 1000 nM
2 |  | COc1cc(N2CCOCC2)ccc1Nc1nc(NC2CCCCC2)c2c(-c3cccc(NC(=O)C4CC4)c3)n[nH]c2n1 [Compound 8-4, N-(3-(4-(cyclohexylamino)-6-((2-methoxy-4-morpholinophenyl)amino)-1H-pyrazolo[3,4-d]pyrimidin-3-yl)phenyl)cyclopropanecarboxamide] | 500 to 1000 nM | > 1000 nM
3 |  | CNC(=O)c1cccc(-c2n[nH]c3nc(Nc4ccc(N5CCOCC5)cc4OC)nc(NC4CCCCC4)c23)c1 [Compound 8-5, 3-(4-(cyclohexylamino)-6-((2-methoxy-4-morpholinophenyl)amino)-1H-pyrazolo[3,4-d]pyrimidin-3-yl)-N-methylbenzamide] | > 1000 nM | > 1000 nM
4 | 30 to 100 nM | COc1cc(N2CCOCC2)ccc1Nc1nc(NC2CCCCC2)c2c(-c3cccc(NS(C)(=O)=O)c3)n[nH]c2n1 [Compound 8-6, N-(3-(4-(cyclohexylamino)-6-((2-methoxy-4-morpholinophenyl)amino)-1H-pyrazolo[3,4-d]pyrimidin-3-yl)phenyl)methanesulfonamide] | > 1000 nM | > 1000 nM
5 | 100 to 300 nM | COc1cc(N2CCOCC2)ccc1Nc1nc(NC2CCCCC2)c2c(-c3cnn(C)c3)n[nH]c2n1 [Compound 8-7, N^4-cyclohexyl-N^6-(2-methoxy-4-morpholinophenyl)-3-(1-methyl-1H-pyrazol-4-yl)-1H-pyrazolo[3,4-d]pyrimidine-4,6-diamine] | 150 to 500 nM | 500 to 1000 nM
6 | 30 to 100 nM | COc1cc(N2CCOCC2)ccc1Nc1nc(NC2CCCCC2)c2c(-c3cnn(C(F)F)c3)n[nH]c2n1 [Compound 8-12, N^4-cyclohexyl-3-(1-(difluoromethyl)-1H-pyrazol-4-yl)-N^6-(2-methoxy-4-morpholinophenyl)-1H-pyrazolo[3,4-d]pyrimidine-4,6-diamine] | 150 to 500 nM | 150 to 500 nM
7 | < 30 nM | COc1cc(N2CCOCC2)ccc1Nc1nc(NC2CCCCC2)c2c(-c3ccn(C)n3)n[nH]c2n1 [Compound 8-13, N^4-cyclohexyl-N^6-(2-methoxy-4-morpholinophenyl)-3-(1-methyl-1H-pyrazol-3-yl)-1H-pyrazolo[3,4-d]pyrimidine-4,6-diamine] | 500 to 1000 nM | 500 to 1000 nM
8 | 30 to 100 nM | COc1cc(N2CCOCC2)ccc1Nc1nc(NC2CCCCC2)c2c(-c3ccco3)n[nH]c2n1 [Compound 8-14, N^4-cyclohexyl-3-(furan-2-yl)-N^6-(2-methoxy-4-morpholinophenyl)-1H-pyrazolo[3,4-d]pyrimidine-4,6-diamine] | 150 to 500 nM | 150 to 500 nM
9 | < 30 nM | COc1cc(N2CCOCC2)ccc1Nc1nc(NC2CCCCC2)c2c(-c3cncs3)n[nH]c2n1 [Compound 8-15, N^4-cyclohexyl-N^6-(2-methoxy-4-morpholinophenyl)-3-(thiazol-5-yl)-1H-pyrazolo[3,4-d]pyrimidine-4,6-diamine] | 150 to 500 nM | 150 to 500 nM
10 |  | COc1cc(N2CCOCC2)ccc1Nc1nc(NC2CCCCC2)c2c(-c3ccc4[nH]ncc4c3)n[nH]c2n1 [Compound 8-17, N^4-cyclohexyl-3-(1H-indazol-5-yl)-N^6-(2-methoxy-4-morpholinophenyl)-1H-pyrazolo[3,4-d]pyrimidine-4,6-diamine] | 500 to 1000 nM | 500 to 1000 nM
11 | 100 to 300 nM | Cn1cc(-c2n[nH]c3nc(NC4CCC(N5CCOCC5)CC4)nc(NC4CCCCC4)c23)cn1 (stereo not shown) [Compound 8-30, N^4-cyclohexyl-3-(1-methyl-1H-pyrazol-4-yl)-N^6-(4-morpholinocyclohexyl)-1H-pyrazolo[3,4-d]pyrimidine-4,6-diamine] | > 1000 nM | 
